Measurements taken from patent US6906097B2, “8-azaprostaglandin analogs as agents for lowering intraocular pressure” (Allergan, Inc., priority 2002, dated 2005).

Biological target: T1, hEP1 (Homo sapiens, UniProt P34995)
T1 construct: expressed in transfected cells
T1 sequence (P34995 1-402): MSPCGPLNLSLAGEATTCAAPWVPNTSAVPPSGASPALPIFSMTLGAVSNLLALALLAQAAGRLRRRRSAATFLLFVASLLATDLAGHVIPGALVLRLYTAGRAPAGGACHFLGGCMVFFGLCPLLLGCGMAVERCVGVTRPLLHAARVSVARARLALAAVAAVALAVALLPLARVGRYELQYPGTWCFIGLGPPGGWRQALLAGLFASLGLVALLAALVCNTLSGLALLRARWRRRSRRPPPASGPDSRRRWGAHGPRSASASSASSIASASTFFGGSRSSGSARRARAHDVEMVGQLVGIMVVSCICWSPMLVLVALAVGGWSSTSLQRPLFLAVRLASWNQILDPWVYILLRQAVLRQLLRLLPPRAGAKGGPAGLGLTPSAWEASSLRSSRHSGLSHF
Assay: Radioligand binding, hEP1
Settings: [3H]PGE2 competition
Procedure: Human Recombinant EP1, EP2, EP3, EP4, FP, TP, IP and DP Receptors: Stable Transfectants
Plasmids encoding the human EP1, EP2, EP3, EP4, FP, TP, IP and DP receptors were prepared by cloning the respective coding sequences into the eukaryotic expression vector pCEP4 (Invitrogen). The pCEP4 vector contains an Epstein Barr virus (EBV) origin of replication, which permits episomal replication in primate cell lines expressing EBV nuclear antigen (EBNA-1). It also contains a hygromycin resistance gene that is used for eukaryotic selection. The cells employed for stable transfection were human embryonic kidney cells (HEK-293) that were transfected with and express the EBNA-1 protein. These HEK-293-EBNA cells (Invitrogen) were grown in medium containing Geneticin (G418) to maintain expression of the EBNA-1 protein. […]
Radioligand binding studies on plasma membrane fractions prepared for cells stably transfected with the cat or human receptor were performed as follows. […] The pellet was then resuspended in TME buffer to provide a final protein concentration of 1 mg/ml, as determined by Bio-Rad assay. […]
The binding of [^3H](N) PGE2 (specific activity 165 Ci/mmol) was determined in duplicate and in at least 3 separate experiments. […] Competition studies were performed using a final concentration of 2.5 or 5 nM [^3H](N) PGE2 and non-specific binding was determined with 10^−5 M unlabelled PGE2.

## O=C(O)CCCCCCN1C(=O)CC[C@@H]1CCC(O)Cc1cccc(Cl)c1 (stereo partly drawn) [Example 1, 7-[2S-[3R-Hydroxy-4-(chloro-phenyl)-butyl]-5-oxo-pyrrolidin-1-yl]-heptanoic acid]
  IC50: 5.8 µM
